# Columns and labels:
# [1] = tested on: posterior capillary dropout in the retina; assay: oxygen-induced retinopathy (OIR) mouse model, fluorescein angiography of retinal capillary dropout; format: in vivo
# Description: FIG. 2 is a montage of fluorescein angiograms depicting a retinal phenotype as observed in an OIR mouse, which highlights large areas of posterior capillary dropout in the retina.
# Capillary drop out is a very serious problem for many retinal vascular diseases. […] See Trese, M. T. et al., Retinal Physician, April 2011.
# [2] = molecular target: T1, Frizzled receptor subtype 4 (Fz4) (Homo sapiens, UniProt Q9ULV1); settings: literature (Xu 2004 and others); cited from earlier work
# T1 sequence (Q9ULV1 37-537): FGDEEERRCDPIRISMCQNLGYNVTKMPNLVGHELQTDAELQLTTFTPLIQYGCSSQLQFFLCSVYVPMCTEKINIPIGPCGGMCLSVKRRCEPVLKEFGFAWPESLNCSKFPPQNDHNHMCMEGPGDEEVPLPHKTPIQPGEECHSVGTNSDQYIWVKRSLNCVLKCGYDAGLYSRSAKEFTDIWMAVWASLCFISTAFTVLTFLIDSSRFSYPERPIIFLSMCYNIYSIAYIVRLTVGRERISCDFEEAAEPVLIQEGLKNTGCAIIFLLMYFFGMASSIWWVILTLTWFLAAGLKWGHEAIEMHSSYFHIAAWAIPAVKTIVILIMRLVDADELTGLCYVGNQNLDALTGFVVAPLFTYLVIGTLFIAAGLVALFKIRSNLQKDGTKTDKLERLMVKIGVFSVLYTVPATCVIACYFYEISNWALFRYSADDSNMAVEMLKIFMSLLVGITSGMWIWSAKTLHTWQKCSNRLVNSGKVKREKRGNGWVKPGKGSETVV
substance,measurement,setting,value
"Norrin: 131 amino acid secreted protein (NCBI NP_000257.1), ligand of Frizzled-4 that activates Wnt signaling",retinal phenotype on fluorescein angiogram,"[1]; OIR mouse, intravitreal injection, FIG. 4",posterior capillary sparing
same,capillary dropout,"[1]; murine capillary dropout model, norrin treatment (FIG. 4 vs FIGS. 1-3)",reduced or eliminated
same,affinity for Fz4,[2],nanomolar affinity
